pIC50: −log10 of the molar value. Read-outs that look alike come from different tables or passages of the source.

The subject of data set [1] is HL60 (human promyelocytic leukemia) cells. In words: WST-1 cell proliferation assay, HL60. In kind it is cell-based. In general terms: Formazan colour is commonly taken as a measure of viable cells.
Protocol: (§1) The HL60NCR resistant cell line has been characterized with over-expression of the multidrug resistant protein (MDR; p-glycoprotein). The over-expression ratio (level of MDR in resistant cell line over level of MDR in the parental cell line) is 8 fold with a 10 fold increase in pgp function. Pgp surface expression was measured by flow cytometry with the MRK16 antibody and Pgp function with the generic substrate, Rh123.
(§2) WST-1 is a water-soluble tetrazolium salt that can be used for cell proliferation or cell viability assays. The rate of WST-1 cleavage by mitochondrial dehydrogenases correlates with the number of viable cells in the culture. WST-1 is added directly to the cells ( 1/10th of the culture volume) and absorbance at 450 nm can be measured using an ELISA plate reader following a short incubation at 37° C.
The subject of data set [2] is 8226/MR20, a cell line selected for resistance to mitoxantrone (BCRP). In words: WST-1 cell proliferation assay, 8226/MR20. Particulars: 8226/MR20 vs 8226.
Protocol: The 8226/MR20 resistant cell line has been characterized with over-expression of the multidrug resistant protein (BCRP).
BCRP surface expression was measured by flow cytometry with the BXP21 antibody.
as §2
Data set [3] concerns pretreatment secondary AML patient cells. Put plainly: Amonafide and daunorubicin efflux in cryopreserved cells of patients treated with amonafide+cytarabine. In kind it is cell-based, human. As to conditions: cells from 15 patients treated with amonafide+cytarabine. The protocol:
Cryopreserved cells were tested for viability and samples with viabilities less than 40% were considered inevaluable and discarded.
To measure drug uptake, the substrates were incubated with cells in medium containing each drug alone, or in combination with the modulator at the desired final concentrations. Cells were then washed and resuspended in PBS, and placed on ice. Drug-associated fluorescence was measured by flow cytometry using a FacScan flow cytometer (Becton Dickinson Immunocytometry Systems, San Jose, Calif.) equipped in standard fashion with an Argon laser for 488 nm excitation and a 585/42 band-pass filter (FL2) or a 670 long-pass (FL3) filter for emission collection. Data were analyzed with WinList software (Verity Software House, Topsham, Me.).

The test system of data set [4] is HL60/VCR (HL60/MDR), a cell line selected for resistance to vincristine. Put plainly: WST-1 cell proliferation assay, HL60/VCR. Particulars: for pIC50: Homo sapiens, HL60/VCR, read-out: IC50 HL60/MDR; for Fold Change in IC50: HL60/MDR vs HL60.
Protocol: as §1, §2
For data set [5], the system named is secondary AML patient sample cells. Put plainly: Drug transport (CsA modulation of uptake) in secondary AML patient cells. The data set is classed as cell-based, human. Particulars: for increase of uptake by Cyclosporin A, mean value: 22 secondary AML samples; for CsA Modulation of Uptake: D-value; for number of patient samples with uptake increased by ≧10% by Cyclosporin A: of 22 secondary AML samples.
Protocol: The expression and function of Pgp, MRP-1 and BCRP was measured in cells collected from patients with secondary AML. Pgp, MRP-1 and BCRP expression was measured by flow cytometry with the MRK16, MRPm6 and BXP21 antibodies, and function by modulation of uptake of the fluorescent substrates DiOC2(3), rhodamine-123 and pheophorbide A by PSC-833, MK571 and FTC, respectively, all measured by the Kolmogorov-Smirnov statistic, generating D-values.

Data set [6] relates to K562 cells (Pgp negative). In words: Functional efflux assay (DiOC2), K562. In kind it is cell-based, human. As to conditions: K562, flow cytometry. Here is the method:
The cells were washed with PBS and resuspended in medium. An aliquot was taken for cytometric quantitation of baseline dye uptake. The remaining samples were incubated again either with or without CSA and resuspended in fresh, chilled medium in order to assess dye efflux also by flow cytometric analysis. Functional expression analyses of Pgp were performed on a BD FACSCalibur flow cytometer (Franklin Lakes, N.J.). Cellular amonafide content was measured on the Cytopeia Influx flow cytometer (Seattle, Wash.). Data analysis was performed using the Dako Cytomation Summit software, version 4.0 (Fort Collins, Colo.). […] Differential Pgp staining of anti-Pgp treated cells was compared to that of control cells counted with the same number of gated events. […] These analyses were performed using the NCSS 2007 software (Kaysville, Utah). This approach addresses the maximum difference between two empirical distribution functions.
(In flow cytometry, cells or beads pass a laser one at a time.)

Data set [7] addresses T1, Pgp (Homo sapiens, UniProt P08183). Particulars: human, Caco-2.
Description: (§3) Both the Caco-2 and MDR1-MDCK cells were used for this model.
Data set [8] concerns the target T1, Pgp. As to conditions: human, MDCK-MDR1.
Description: MDR1-MDCK are Madin Darby Canine Kidney cells transfected with the human multi-drug resistance gene. Confluent monolayers made from these cells can be used to access a test compound's potential role as a P-gp substrate. The assay set up is similar to the CaCo-2 assay.
as §3
Data set [9] concerns IGROV1-T8, a cell line selected for resistance to topotecan (increased BCRP expression). Particulars: T8 resistant line vs IGROV1.
Protocol: (§4) The T8 resistant cell line has been characterized with over-expression of the multidrug resistant protein BCRP (breast cancer resistance protein). Topotecan, which is a known substrate for BCRP, was used as a control.
(§5) Sulforhodamine-B (SRB) assay is performed to assess cell survival. SRB is a water-soluble dye that binds to the basic amino acids of the cellular proteins. Thus, colorimetric measurement of the bound dye provides an estimate of the total protein mass that is related to the cell number. The color can then be quantified using a simple colorimetric assay. The results can be read on a multiwell scanning spectrophotometer (ELISA reader).
The subject of data set [10] is IGROV1 (human ovarian) cell line. Put plainly: SRB cell proliferation assay, IGROV1. In kind it is cell-based. Particulars: read-out: IC50.
Protocol: as §4, §5
In data set [11] the test system is IGROV1-T8, a cell line selected for resistance to topotecan (increased BCRP expression). In words: cells. Particulars: Homo sapiens, T8.
Protocol: as §4, §5
Where [12] appears, read: HL-60, wild-type HL60, WST-1, read-out: IC50 HL60.

T1 sequence (P08183 whole entry): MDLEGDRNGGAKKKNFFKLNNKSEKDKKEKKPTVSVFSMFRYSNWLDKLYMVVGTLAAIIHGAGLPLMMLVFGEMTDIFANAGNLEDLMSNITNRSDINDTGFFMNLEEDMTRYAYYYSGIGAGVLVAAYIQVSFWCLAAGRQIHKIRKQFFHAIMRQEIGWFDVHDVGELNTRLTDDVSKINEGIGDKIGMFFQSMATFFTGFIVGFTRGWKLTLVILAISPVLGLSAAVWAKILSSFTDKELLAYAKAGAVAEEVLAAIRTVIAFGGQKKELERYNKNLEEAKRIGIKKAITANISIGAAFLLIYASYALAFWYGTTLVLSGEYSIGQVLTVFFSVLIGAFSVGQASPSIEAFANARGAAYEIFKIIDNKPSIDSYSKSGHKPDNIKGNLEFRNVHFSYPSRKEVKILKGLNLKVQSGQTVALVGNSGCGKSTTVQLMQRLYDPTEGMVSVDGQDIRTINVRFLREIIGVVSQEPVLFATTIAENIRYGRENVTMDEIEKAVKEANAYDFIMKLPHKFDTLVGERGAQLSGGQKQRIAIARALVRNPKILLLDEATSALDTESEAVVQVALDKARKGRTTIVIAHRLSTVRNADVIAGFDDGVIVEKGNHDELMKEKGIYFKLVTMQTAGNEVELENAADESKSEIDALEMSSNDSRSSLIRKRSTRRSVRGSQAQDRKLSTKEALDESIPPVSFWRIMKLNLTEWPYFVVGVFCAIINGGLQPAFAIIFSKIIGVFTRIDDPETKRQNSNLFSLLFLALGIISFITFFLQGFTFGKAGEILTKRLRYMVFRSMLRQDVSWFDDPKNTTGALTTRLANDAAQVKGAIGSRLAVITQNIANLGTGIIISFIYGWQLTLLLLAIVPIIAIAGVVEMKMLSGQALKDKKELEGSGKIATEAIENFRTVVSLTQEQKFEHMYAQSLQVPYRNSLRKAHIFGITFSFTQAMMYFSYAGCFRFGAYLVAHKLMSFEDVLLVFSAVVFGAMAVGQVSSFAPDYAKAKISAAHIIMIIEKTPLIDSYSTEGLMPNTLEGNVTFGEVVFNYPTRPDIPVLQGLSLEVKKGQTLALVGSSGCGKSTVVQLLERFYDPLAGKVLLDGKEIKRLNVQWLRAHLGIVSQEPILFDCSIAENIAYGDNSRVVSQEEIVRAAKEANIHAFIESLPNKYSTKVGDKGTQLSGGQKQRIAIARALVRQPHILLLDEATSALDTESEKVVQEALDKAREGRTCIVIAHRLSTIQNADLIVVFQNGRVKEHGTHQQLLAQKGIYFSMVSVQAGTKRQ

As for `COc1cccc2c1C(=O)c1c(O)c3c(c(O)c1C2=O)C[C@@](O)(C(C)=O)C[C@@H]3O[C@H]1C[C@H](N)[C@H](O)[C@H](C)O1` [Daunorubicin, daunorubicin], the pIC50 in data set [1] (HL-60, read-out: IC50 HL60) was 7.82; in data set [4], 7.04. Further, the “loss of potency in the BCRP line” value in data set [2] is recorded as “½”. For the same compound, the “drug efflux in relation to clinical response (CR vs non-CR)” value in data set [3] is reported as “negatively correlated with response”. In data set [4] (HL60/VCR vs HL60), the “loss of potency in the Pgp+ line” value is listed as 2 log units. Further, the “increase of uptake by Cyclosporin A, mean value” (shortened to “increase of uptake”) in [5] is 19.7%. The “CsA Modulation of Uptake” value in data set [5] (Pt 1) is recorded as 0.2; in [5] (Pt 2), 0.14; in data set [5] (Pt 3) it was 0.27; in data set [5] (Pt 4), 0.23; in data set [5] (Pt 5), 0; in data set [5] (Pt 6) it was 0.41. Also, the “CsA Modulation of Uptake” value in data set [5] (Pt 7) was found to be 0.47; in data set [5] (Pt 8) it was 0.31; in [5] (Pt 9), 0.08; in data set [5] (Pt 10), 0.08; in data set [5] (Pt 11), 0.03; in data set [5] (Pt 12), 0.37. Besides, the “CsA Modulation of Uptake” value was 0.16 in data set [5] (Pt 13); 0.29 in [5] (Pt 14); 0.07 in [5] (Pt 15); 0.08 in data set [5] (Pt 16); 0.24 in data set [5] (Pt 17); 0.03 in data set [5] (Pt 18). Besides, the “CsA Modulation of Uptake” value in data set [5] (Pt 19) is given as 0.04; in data set [5] (Pt 20), 0.35; in data set [5] (Pt 21), 0.12; in data set [5] (Pt 22) it was 0.43. Moreover, the “number of patient samples with uptake increased by ≧10% by Cyclosporin A” value in data set [5] came out at 16 patient samples.
For the compound `CCN1/C(=C/C=C/c2oc3ccccc3[n+]2CC)Oc2ccccc21.[I-]` [DiOC2], in [6], the DiOC2 accumulation result is “accumulated in Pgp negative K562 cells”.
As for `C[C@H]1O[C@@H](O[C@H]2[C@@H](O)C[C@H](O[C@H]3[C@@H](O)C[C@H](O[C@H]4CC[C@@]5(C)[C@H](CC[C@@H]6[C@@H]5C[C@@H](O)[C@]5(C)[C@@H](C7=CC(=O)OC7)CC[C@]65O)C4)O[C@@H]3C)O[C@@H]2C)C[C@H](O)[C@@H]1O` [Digoxin, digoxin], the “Digoxin Efflux (efflux/influx ratio), Caco-2” value on Pgp [7] was 10.6 ± 1.4. Also, the “Digoxin Efflux (efflux/influx ratio), MDR1-MDCK” value on Pgp [8] is given as 70 + 11.
Consider `COc1cccc2c1C(=O)c1c(O)c3c(c(O)c1C2=O)C[C@@](O)(C(=O)CO)C[C@@H]3O[C@H]1C[C@H](N)[C@H](O)[C@H](C)O1` [Doxorubicin, doxorubicin], for which, in data set [1] (setting [12]), the pIC50 is 7.48. In data set [4], the “Fold Change in IC50” value was 4.87 and the pIC50 was 6.79.
For the compound `CC(=O)[C@]1(O)Cc2c(O)c3c(c(O)c2[C@@H](O[C@H]2C[C@H](N)[C@H](O)[C@H](C)O2)C1)C(=O)c1ccccc1C3=O` [Idarubicin, idarubicin], the “increase of uptake” value in [5] came to 7%. The “CsA Modulation of Uptake” value was found to be 0 in data set [5] (Pt 1); 0.23 in [5] (Pt 2); 0.22 in data set [5] (Pt 3); 0.17 in [5] (Pt 4); 0 in data set [5] (Pt 5); 0.21 in [5] (Pt 6). Further, the “CsA Modulation of Uptake” value in data set [5] (Pt 7) stood at 0.21; in [5] (Pt 8), 0.16; in data set [5] (Pt 9) it was 0.18; in [5] (Pt 10), 0.02; in [5] (Pt 11) it was 0.05; in data set [5] (Pt 12), 0.08. In addition, the “CsA Modulation of Uptake” value in data set [5] (Pt 13) turned out to be 0.06; in data set [5] (Pt 14), 0.28; in [5] (Pt 15), 0.16; in data set [5] (Pt 16), 0.03; in [5] (Pt 17) it was 0; in data set [5] (Pt 18), 0. In addition, the “CsA Modulation of Uptake” value in [5] (Pt 19) is recorded as 0.17; in data set [5] (Pt 20) it was 0.23; in [5] (Pt 21), 0.19; in data set [5] (Pt 22) it was 0.31. Also, the “number of patient samples with uptake increased by ≧10% by Cyclosporin A” value in [5] was found to be 12 patient samples.
With `O=C1c2c(O)ccc(O)c2C(=O)c2c(NCCNCCO)ccc(NCCNCCO)c21` [Mitoxantrone, mitoxantrone], the pIC50 in data set [1] (setting [12]) was 8.10. In addition, in [4], the “Fold Change in IC50” value came out at 390.7 and the pIC50 was 5.51.
Turning to `CO[C@@H]1[C@H](N(C)C(=O)c2ccccc2)C[C@H]2O[C@]1(C)n1c3ccccc3c3c4c(c5c6ccccc6n2c5c31)C(=O)NC4` [PKC412], the “Digoxin Efflux (efflux/influx ratio), Caco-2” value at Pgp [7] was 1.8 ± 1.3. In addition, the “Digoxin Efflux (efflux/influx ratio), MDR1-MDCK” value on Pgp [8] is on record as 6.4 ± 0.8.
On to `CC[C@@]1(O)C(=O)OCc2c1cc1n(c2=O)Cc2cc3c(CN(C)C)c(O)ccc3nc2-1` [TPT, Topotecan], for which, in [9], the “resistance of T8 line to Topotecan relative to Amonafide” value is on record as 10 fold. For the same compound, the pIC50 is 7.44 in data set [10] (IGROV-1, IGROV1, experiment (1)); 7.13 in [10] (IGROV-1, IGROV1, experiment (2)); 5.96 in data set [11] (experiment (1)); 5.96 in [11] (experiment (2)).
Consider amonafide L-malate, for which the “increase of uptake” value in data set [5] is recorded as −2.5%. For the same compound, the “CsA Modulation of Uptake” value is recorded as 0 in data set [5] (Pt 1); 0.09 in data set [5] (Pt 2); 0 in [5] (Pt 3); 0.02 in [5] (Pt 4); 0 in data set [5] (Pt 5); 0.1 in [5] (Pt 6). In addition, the “CsA Modulation of Uptake” value came to 0.31 in data set [5] (Pt 7); 0.07 in data set [5] (Pt 8); 0 in [5] (Pt 9); 0.18 in data set [5] (Pt 10); 0 in data set [5] (Pt 11); 0 in data set [5] (Pt 12). Further, the “CsA Modulation of Uptake” value is 0.03 in data set [5] (Pt 13); 0.05 in data set [5] (Pt 14); 0 in [5] (Pt 15); 0 in data set [5] (Pt 16); 0 in data set [5] (Pt 17); 0 in [5] (Pt 18). Moreover, the “CsA Modulation of Uptake” value was found to be 0 in data set [5] (Pt 19), 0.15 in data set [5] (Pt 20), 0.43 in [5] (Pt 21) and 0 in [5] (Pt 22). Further, the “substrate status for the MDR proteins expressed in AML cells” value in [5] (in relation to other topoisomerase 2 inhibitors) is “poor substrate”. Moreover, the “number of patient samples with uptake increased by ≧10% by Cyclosporin A” value in data set [5] was 5 patient samples.

Source of the values: US20100204263A1, “METHOD OF TREATING MULTIDRUG RESISTANT CANCERS” (priority 2007, published 2010).
